Source: patent publication US20100167397A1, “ENDOCRINE CELL LINES AND METHOD OF USING THE SAME” (KYOWA HAKKO KOGYO CO., LTD., priority 2002, published 2010)

Assays:
sulfonylurea receptor [1] = target: T1, sulfonylurea receptor (Rattus norvegicus, UniProt Q09429); experiment: Intracellular Ca2+ rise on sulfonylurea in single clones derived from Langerhans islets (Fura-2AM); type: cell-based; settings: single clones M-6, M-9, M-15, M-19, M-20, M-33, M-43, F-1 and F-9; 0.5 mmol/L
T1 construct: endogenous in cells; host or cells: rat islet-derived clones M-6, M-9, M-15, M-19, M-20, M-33, M-43, F-1, F-9
Method: About 5×10^6 cells of single clones (M-6, M-9, M-15, M-19, M-20, M-33, M-43, F-1 and F-9) of immortalized cell lines mentioned in Example 11 obtained using an RPMI 1640 (05918) medium were plated on a 60-mm dish and cultured at 33° C. for 2 days using an RPMI 1640 (05918) medium.
After the cultivation, it was washed with an HBSS buffer (manufactured by Gibco) for two times and the cells were floated. Sulfonylurea (Tolbutamide, manufactured by Alexis) was added to about 1×10^6 of the cells so as to make the final concentration 0.5 mmol/L whereupon an increase in Ca^2+ concentration in the cells was checked. Measurement of the Ca^2+ concentration in the cells was carried out using a CAF-100 instrument (manufactured by Nippon Bunko).

sulfonylurea receptor [2] = experiment: Intracellular Ca2+ rise on sulfonylurea in immortalized cell lines derived from hypothalamus (Fura-2AM, CAF-110); type: cell-based, rat; settings: 0.5 mmol/L
Method: The immortalized cell lines (a mixture) derived from hypothalamus of female adult rat obtained in Example 3 were cultured by the method mentioned in Example 1. […] The resulting cells were washed with an HBSS buffer (manufactured by Gibco) twice and the cells were floated. Sulfonylurea (Tolbutamide; manufactured by Alexis) was added to about 1×10^6 cell to make its final concentration 0.5 mmol/L and a rise in Ca^2+ concentration in the cells was checked. Measurement of the Ca^2+ concentration in the cells was conducted using a CAF-110 instrument (manufactured by Nippon Bunko).
As same as in the above (1), reactivity of an immortalized cell line (single clone AMN2-25) derived from hypothalamus of male adult rat obtained in Example 3 with sulfonylurea was tested.

CRE reporter in GBC7 = experiment: Constitutive activity of GPCR, Method 4 (GBC7 host, firefly luciferase); type: cell-based, human; settings: activity with 17β-estradiol divided by activity without, control plasmid about 1
Method: This is a measuring method for constitutive activity of GPCR which is the same as Method 2 except that GBC7 was used as a host and no puromycin was added in the incubation of the transformants.
(§1) In each method, the induction ratio of the cells transfected with the control plasmid was about 1. It is judged that the higher the induction ratio of the cells to which a GPCR expression plasmid was transfected, the stronger the constitutive activity of the GPCR.

leptin receptor (Ob-Rb) [3] = target: T2, leptin receptor (Ob-Rb) (Rattus norvegicus, UniProt Q62959); experiment: Leptin reactivity: immunostaining using an anti-STAT antibody (STAT3 transfer from cytoplasm to nucleus); type: cell-based; settings: NC-6, NC-12 and AMN2-25; 100 nmol/L human leptin, 37° C., 15 minutes; without leptin cytoplasm was stained
T2 construct: endogenous in cells; host or cells: rat hypothalamus-derived immortalized lines NC-6, NC-12, AMN2-25
T2 sequence (Q62959 22-1162): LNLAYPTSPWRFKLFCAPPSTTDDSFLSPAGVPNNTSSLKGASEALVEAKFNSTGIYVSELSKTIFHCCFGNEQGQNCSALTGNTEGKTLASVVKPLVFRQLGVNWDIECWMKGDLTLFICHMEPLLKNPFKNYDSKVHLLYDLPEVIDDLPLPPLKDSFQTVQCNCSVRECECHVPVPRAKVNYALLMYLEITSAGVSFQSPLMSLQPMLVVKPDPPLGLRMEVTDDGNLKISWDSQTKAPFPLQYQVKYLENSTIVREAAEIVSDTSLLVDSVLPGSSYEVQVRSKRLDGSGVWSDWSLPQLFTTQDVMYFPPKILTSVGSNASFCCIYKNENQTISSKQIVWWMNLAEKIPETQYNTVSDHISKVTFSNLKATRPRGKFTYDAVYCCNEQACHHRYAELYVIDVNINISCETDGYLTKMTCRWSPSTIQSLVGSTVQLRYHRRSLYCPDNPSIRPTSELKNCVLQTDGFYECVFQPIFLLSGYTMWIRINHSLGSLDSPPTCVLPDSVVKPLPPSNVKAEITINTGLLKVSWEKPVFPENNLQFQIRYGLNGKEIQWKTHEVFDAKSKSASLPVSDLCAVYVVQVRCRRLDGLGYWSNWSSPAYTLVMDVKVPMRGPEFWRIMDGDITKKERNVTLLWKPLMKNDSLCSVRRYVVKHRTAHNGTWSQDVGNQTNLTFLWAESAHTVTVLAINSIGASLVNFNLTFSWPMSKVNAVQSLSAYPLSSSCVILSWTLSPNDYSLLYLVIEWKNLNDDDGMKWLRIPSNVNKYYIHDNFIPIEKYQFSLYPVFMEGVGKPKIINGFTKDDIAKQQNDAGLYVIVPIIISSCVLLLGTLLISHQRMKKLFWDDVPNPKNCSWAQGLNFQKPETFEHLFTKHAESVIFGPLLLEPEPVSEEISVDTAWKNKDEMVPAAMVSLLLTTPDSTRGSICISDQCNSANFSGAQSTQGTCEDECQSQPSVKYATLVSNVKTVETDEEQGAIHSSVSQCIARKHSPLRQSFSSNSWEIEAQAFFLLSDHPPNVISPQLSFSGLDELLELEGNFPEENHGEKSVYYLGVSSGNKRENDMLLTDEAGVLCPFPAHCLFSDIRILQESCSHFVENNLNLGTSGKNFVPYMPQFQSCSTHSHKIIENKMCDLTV
Method: In a cell line where expression of a leptin receptor (Ob-Rb) protein is confirmed by the method mentioned in Example 7, it was analyzed by the following method whether a functional Ob-Rb is expressed. The following method is a method where the fact that a transcription factor STAT3 is phosphorylated upon stimulation by leptin and is transferred from cytoplasm to nucleus is utilized.
NC-6, NC-12 and AMN2-25 expressing leptin receptor (Ob-Rb) protein are cultured according to the method mentioned in Example 1. After the cultivation, about 1×10^3 cells were plated on 8 chambers coated with CELL-TAK and cultured for 3 days where cultivation temperature was shifted from 33° C. to 37° C. […] After the cultivation, exchange to a DMEM/F-12 (-FCS) medium was conducted. After 2 hours from the exchange of the medium, the cells were stimulated with 100 nmol/L of human leptin (manufactured by R&D Systems) at 37° C. for 15 minutes.
After the stimulation, immunostaining was carried out using an anti-STAT antibody (manufactured by NEB) and a cyanine 3-labeled anti-rabbit IgG (secondary antibody) diluted to an extent of 200-fold. The immunostaining was carried out according to the manual of Phospho Plus Stat 3 (Tyr 705) Antibody it (NEB). […] After the staining, drying was conducted, mounting with a discoloration inhibitor solution was done and an observation under a fluorescence microscope was carried out.

leptin receptor (Ob-Rb) [4] = target: T2, leptin receptor (Ob-Rb); experiment: Leptin reactivity: change in expression of c-fos gene and SOCS-3 gene by PCR; type: cell-based; settings: NC-6, NC-12 and AMN2-25; 100 nmol/L human leptin, 0 minute, 30 minutes or 1 hour
Method: Expression of c-fos gene and SOCS-3 gene, which has been known to be increased in hypothalamic cells by leptin stimulation, was analyzed by the following method utilizing a PCR whereby the leptin reactivity of the cell line, which was confirmed to be expressing a functional OB-Rb in the above (1), was confirmed from another view.
NC-6, NC-12 and AMN2-25 were cultured according to the method mentioned in Example 1. After the cultivation, about 2×10^4 cells were plated on a 35-mm dish coated with poly-lysine and cultured out for 5 days by shifting the cultivation temperature from 33° C. to 37° C. […] After the cultivation, exchange to a DMEM/F-12 (-FCS) medium was done.
After 2 hours from the exchange of the medium, 100 nmol/L of human leptin (manufactured by R&D Systems) was added. After incubating at 37° C. for 0 minute, 30 minutes or 1 hour, total RNA was collected from each cell line using an RNeasy Mini Kit (manufactured by Qiagen). Single-stranded cDNA was synthesized from the total RNA according to the method mentioned in Example 6 and a PCR was carried out using the cDNA as a template. With regard to primers specific to c-fos gene, synthetic DNAs having the nucleotide sequences of SEQ ID NOS: 45 and 46 were used while, with regard to primers specific to SOCS-3 gene, synthetic DNAs having the nucleotide sequences of SEQ ID NOS: 47 and 48 were used. […]

CRE reporter in GBCC13 = experiment: Constitutive activity of GPCR, Method 2 (GBCC13 host, firefly luciferase); type: cell-based, human; settings: activity with 17β-estradiol divided by activity without, control plasmid about 1
Method: After the incubation, Steady Glo Luciferase Assay System (manufactured by Promega) was added and firefly luciferase activity was measured. For the measurement of activity, Auto Lumat LB953 (manufactured by Berthold) or Top Count (Packard) was used. […] It is judged that the higher the induction ratio of the cells to which a GPCR expression plasmid was transfected, the stronger the constitutive activity of the GPCR.

CRE reporter in GBCR2 = experiment: Constitutive activity of GPCR, Method 3 (GBCR2 host, Renilla reniformis luciferase); type: cell-based, human; settings: activity with 17β-estradiol divided by activity without, control plasmid about 1
Method: This is a measuring method for constitutive activity of GPCR which is the same as Method 1 except that GBCR2 was used as a host and no puromycin was added in the incubation of the transformants.
as §1

T1 sequence (Q09429 whole entry): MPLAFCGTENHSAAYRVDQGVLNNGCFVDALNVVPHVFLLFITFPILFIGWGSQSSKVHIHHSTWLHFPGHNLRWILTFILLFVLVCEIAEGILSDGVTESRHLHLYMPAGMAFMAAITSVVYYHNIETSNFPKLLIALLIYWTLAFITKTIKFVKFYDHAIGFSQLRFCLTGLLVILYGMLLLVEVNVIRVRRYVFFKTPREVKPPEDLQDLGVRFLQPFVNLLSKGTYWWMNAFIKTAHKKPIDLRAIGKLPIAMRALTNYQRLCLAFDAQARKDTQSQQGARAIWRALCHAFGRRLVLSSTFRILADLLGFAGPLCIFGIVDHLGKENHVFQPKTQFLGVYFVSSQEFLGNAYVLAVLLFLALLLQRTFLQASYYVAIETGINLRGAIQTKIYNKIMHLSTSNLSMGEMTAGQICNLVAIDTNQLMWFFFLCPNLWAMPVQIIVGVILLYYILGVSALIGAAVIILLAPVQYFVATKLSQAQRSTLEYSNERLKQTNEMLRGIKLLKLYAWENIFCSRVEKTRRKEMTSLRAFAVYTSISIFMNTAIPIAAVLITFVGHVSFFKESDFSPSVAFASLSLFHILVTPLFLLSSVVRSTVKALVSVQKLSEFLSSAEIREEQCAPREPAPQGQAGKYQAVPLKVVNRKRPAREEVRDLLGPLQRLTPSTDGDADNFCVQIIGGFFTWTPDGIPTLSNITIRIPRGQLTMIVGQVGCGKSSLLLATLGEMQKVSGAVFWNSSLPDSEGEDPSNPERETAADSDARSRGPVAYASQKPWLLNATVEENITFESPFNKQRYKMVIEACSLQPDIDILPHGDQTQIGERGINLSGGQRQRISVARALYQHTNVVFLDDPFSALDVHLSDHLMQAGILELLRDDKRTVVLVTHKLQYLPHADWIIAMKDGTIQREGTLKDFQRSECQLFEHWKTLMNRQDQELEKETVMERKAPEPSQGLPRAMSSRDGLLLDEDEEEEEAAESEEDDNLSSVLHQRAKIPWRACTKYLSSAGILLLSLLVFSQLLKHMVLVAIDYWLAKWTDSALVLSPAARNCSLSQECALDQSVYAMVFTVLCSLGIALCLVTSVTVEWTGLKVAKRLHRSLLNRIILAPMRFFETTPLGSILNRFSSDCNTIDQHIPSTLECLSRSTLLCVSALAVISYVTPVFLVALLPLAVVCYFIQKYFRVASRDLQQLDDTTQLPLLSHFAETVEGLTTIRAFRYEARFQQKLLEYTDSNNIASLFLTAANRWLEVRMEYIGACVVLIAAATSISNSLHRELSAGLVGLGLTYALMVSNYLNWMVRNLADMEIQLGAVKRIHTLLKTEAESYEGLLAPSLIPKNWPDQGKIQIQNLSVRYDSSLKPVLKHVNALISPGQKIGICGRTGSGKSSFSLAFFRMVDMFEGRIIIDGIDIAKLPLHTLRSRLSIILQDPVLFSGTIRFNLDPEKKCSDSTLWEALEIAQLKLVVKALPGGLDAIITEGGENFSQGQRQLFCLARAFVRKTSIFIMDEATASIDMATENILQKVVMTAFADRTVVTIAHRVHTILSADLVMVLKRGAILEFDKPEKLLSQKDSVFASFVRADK
T1 sequence (P70673 whole entry partner): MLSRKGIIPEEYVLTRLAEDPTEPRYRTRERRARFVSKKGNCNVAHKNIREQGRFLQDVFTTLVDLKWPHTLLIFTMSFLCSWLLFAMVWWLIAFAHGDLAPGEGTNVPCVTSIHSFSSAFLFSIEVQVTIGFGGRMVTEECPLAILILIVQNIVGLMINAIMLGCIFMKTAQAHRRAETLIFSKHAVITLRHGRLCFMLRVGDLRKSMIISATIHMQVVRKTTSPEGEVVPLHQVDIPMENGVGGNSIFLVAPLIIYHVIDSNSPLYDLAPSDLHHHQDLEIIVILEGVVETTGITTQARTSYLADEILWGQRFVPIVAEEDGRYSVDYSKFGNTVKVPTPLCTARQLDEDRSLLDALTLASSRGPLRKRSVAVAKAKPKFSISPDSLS

CCCCNC(=O)NS(=O)(=O)c1ccc(C)cc1 [sulfonylurea, Tolbutamide]
Ca2+ concentration in the cells (sulfonylurea receptor [1]): increased
rise in Ca2+ concentration in the cells (sulfonylurea receptor [2]; immortalized cell lines (a mixture) from hypothalamus of female adult rat): cell lines which reacted with sulfonylurea were present
Ca2+ concentration in the cell (sulfonylurea receptor [2]; single clone AMN2-25): increased

GPR 52
Constitutive Activity (induction ratio) (CRE reporter in GBC7): 40-fold

leptin: human leptin (manufactured by R&D Systems)
STAT3 immunostaining upon stimulation with leptin (leptin receptor (Ob-Rb) [3]): the area inside the nucleus was stained
expression of SOCS-3 gene by stimulation with leptin (leptin receptor (Ob-Rb) [4]): increased
expression of c-fos gene by stimulation with leptin (leptin receptor (Ob-Rb) [4]): increased

GPR 25
Constitutive Activity (induction ratio) (CRE reporter in GBCC13): 4.8-fold

B1: GPR 12 (protein, UniProt P47775 1-334, looked up)
G-protein coupled receptor 12: MNEDLKVNLSGLPRDYLDAAAAENISAAVSSRVPAVEPEPELVVNPWDIVLCTSGTLISCENAIVVLIIFHNPSLRAPMFLLIGSLALADLLAGIGLITNFVFAYLLQSEATKLVTIGLIVASFSASVCSLLAITVDRYLSLYYALTYHSERTVTFTYVMLVMLWGTSICLGLLPVMGWNCLRDESTCSVVRPLTKNNAAILSVSFLFMFALMLQLYIQICKIVMRHAHQIALQHHFLATSHYVTTRKGVSTLAIILGTFAACWMPFTLYSLIADYTYPSIYTYATLLPATYNSIINPVIYAFRNQEIQKALCLICCGCIPSSLAQRARSPSDV
Constitutive Activity (induction ratio) (CRE reporter in GBCR2): 188-fold
